Key:
[1] = test system: 5-HT in the raphe nuclei / forebrain; settings: cited from earlier work
[2] = test system: 5-HT levels in rat ventral hippocampus; test: Microdialysis of brain serotonin levels, ventral hippocampus; assay type: in vivo
Description: (§1) Male albino rats of a Wistar-derived strain (285-320 g; Harlan, Zeist, The Netherlands) were used for the experiments. Upon surgery, rats were housed individually in plastic cages (35×35×40 cm), and had free access to food and water. Animals were kept on a 12 h light schedule (light on 7:00 a.m.). The experiments are concordant with the declarations of Helsinki and were approved by the animal care committee of the faculty of mathematics and natural science of the University of Groningen.
Microdialysis of brain serotonin levels was performed using home made I-shaped probes, made of polyacrylonitrile/sodium methyl sulfonate copolymer dialysis fiber (i.d. 220 μn, o.d. […], AN 69, Hospal, Italy). Preceding surgery rats were anaesthetised using isoflurane (O2/N2O; 300/300 ml/min). Lidocaine-HCl, 10% (m/v) was used for local anaesthesia. Rats were placed in a stereotaxic frame (Kopf, USA), and probes were inserted into Ventral Hippcampus (V. Hippo, L+4.8 mm, IA: +3.7 mm, V: −8.0 mm) and median prefrontal cortex (PFC, L −0.9 mm; AP: +3.5 mm relative to bregma; V: −6.0 mm (Paxinos and Watson, 1982). After insertion, probes were secured with dental cement.
Rats were allowed to recover for at least 24 h. Probes were perfused with artificial cerebrospinal fluid containing 147 mM NaCl, 3.0 mM KCl, 1.2 mM CaCl2, and 1.2 mM MgCl2, at a flow-rate of 1.5 μl/min (Harvard apparatus, South Natick, Ma., USA). 15 minute microdialysis samples were collected in HPLC vials containing 7.5 μl 0.02 M acetic acid for serotonin analysis.
(§2) Twenty-μl microdialysate samples were injected via an autoinjector (CMA/200 refrigerated microsampler, CMA, Sweden) onto a 100×2.0 mm C18 Hypersil 3 μm column (Bester, Amstelveen, the Netherlands) and separated with a mobile phase consisting of 5 g/L di-ammoniumsulfate, 500 mg/L EDTA, 50 mg/L heptane sulphonic acid, 4% methanol v/v, and 30 μl/L of triethylamine, pH 4.65 at a flow of 0.4 ml/min (Shimadzu LC-10 AD). 5-HT was detected amperometrically at a glassy carbon electrode at 500 mV vs Ag/AgCl (Antec Leyden, Leiden, The Netherlands). The detection limit was 0.5 fmol 5-HT per 20 μl sample (signal to noise ratio 3).
Four consecutive microdialysis samples with less then 20% variation were taken as control and set at 100%. Data are presented as percentages of control level (mean±S.E.M.) in time. Statistical analysis was performed using Sigmastat for Windows (SPSS, Jandel Corporation). Treatments were compared versus controls using two way analysis of variance (ANOVA) for repeated measurements, followed by Student Newman Keuls test. Level of significance level was set at p<0.05.

[3] = test system: 5-HT levels in rat prefrontal cortex; test: Microdialysis of brain serotonin levels, prefrontal cortex; assay type: in vivo; settings: PFC; 2 mg/kg s.c. co-administered with citalopram 10 μmol/kg s.c.; P=0.048
Description: as §1
Microdialysis of brain serotonin levels was performed using home made I-shaped probes, made of polyacrylonitrile/sodium methyl sulfonate copolymer dialysis fiber (i.d. 220 μn, o.d. 0.31 μm, AN 69, Hospal, Italy). Preceding surgery rats were anaesthetised using isoflurane (O2/N2O; 300/300 ml/min). Lidocaine-HCl, 10% (m/v) was used for local anaesthesia. […]
as §2, with “The detection limit was 0.5 fmol 5-HT per 20 μl sample (signal to noise ratio 3).” left out

NCC(CC(=O)O)c1ccc(Cl)cc1 (centres unmarked) [baclofen]
5-HT in the forebrain ([1]; forebrain): reduction
5-HT in the raphe ([1]; raphe): decrease

NCc1cc(=O)[nH]o1 [muscimol]
5-HT cell activity & 5-HT release ([1]; raphe nuclei): reduced

CN1CCc2cc3c(cc2[C@H]1[C@@H]1OC(=O)c2c1ccc1c2OCO1)OCO3 [bicuculline, (+)-Bicuculline]
increase of serotonin levels ([2]; local administration of 50 μM in ventral hippocampus, significant from t=45 to 90 min): about 150%

NCC(O)(CS(=O)(=O)O)c1ccc(Cl)cc1 (centres unmarked) [2-hydroxysaclofen]
effects on 5-HT levels with citalopram ([2]; 2 mg/kg s.c. simultaneous with citalopram 10 μmol/kg s.c., P=0.046): augmented effects on 5-HT levels

NCC(CP(=O)(O)O)c1ccc(Cl)cc1 (centres unmarked) [Phaclofen]
5-HT levels compared to citalopram treatment alone [3]: enhanced levels of 5-HT
5-HT levels compared to citalopram treatment alone ([2]; 2 mg/kg s.c. co-administered with citalopram 10 μmol/kg s.c., P=0.021, t=75 to t=135): enhanced levels of 5-HT
effects of citalopram on extracellular 5-HT levels ([2]; administered either centrally into the hippocampus or systemically, with citalopram): significantly increase
effect on basal levels of 5-HT ([2]; local infusion (50 μM) in ventral hippocampus, P=0.26): did not have any effect
5-HT levels after systemic citalopram during local administration ([2]; local phaclofen 50 μM, citalopram 10 μmol/kg s.c., P=0.0068, significant from t=75 to 150 min): augmented levels of 5-HT
effect on 5-HT levels when administered by itself ([1]; raphe or forebrain): devoid of effect

NCCCP(=O)(O)CC1CCCCC1 [CGP 46381]
response on 5-HT levels with citalopram ([2]; 0.5 mg/kg co-administered with citalopram 10 μmol/kg, treatment p=0.04): augmented response
response on 5-HT levels with citalopram ([2]; 2 mg/kg co-administered with citalopram 10 μmol/kg, treatment p=0.10, treatment vs. time 0.001): augmented response
effect on 5-HT levels, given alone ([2]; 10 mg/kg s.c., without citalopram): did not show any effect
